Measurements published in US11866450B2, “Modulators of Cystic Fibrosis Transmembrane Conductance regulator, pharmaceutical compositions, methods of treatment, and process for making the modulators” (priority 2018, dated 2024).
pEC50: −log10 of the molar value.

Target: CFTR-mediated chloride transport (Homo sapiens, UniProt P13569)
Format: cell-based
Settings: enteroid cells incubated with test compound 18-24 hours, acute 10 μM forskolin and 300 nM Compound III; for Max. Activity: % of chloride transport with 3 μM Compound A, 3 μM Compound II and 300 nM acute Compound III triple combination control
Method in brief: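 Human intestinal enteroid cells incubated with compound 18–24 h at 37° C., then membrane potential dye (FLIPR) read 15 min after chloride-free stimulation with 10 μM forskolin, 100 μM IBMX and 300 nM Compound III. AUC expressed as % of triple-combination control (3 μM Compound A, 3 μM Compound II, 300 nM Compound III).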

CFTR-mediated chloride transport, sequence (P13569 whole entry, looked up): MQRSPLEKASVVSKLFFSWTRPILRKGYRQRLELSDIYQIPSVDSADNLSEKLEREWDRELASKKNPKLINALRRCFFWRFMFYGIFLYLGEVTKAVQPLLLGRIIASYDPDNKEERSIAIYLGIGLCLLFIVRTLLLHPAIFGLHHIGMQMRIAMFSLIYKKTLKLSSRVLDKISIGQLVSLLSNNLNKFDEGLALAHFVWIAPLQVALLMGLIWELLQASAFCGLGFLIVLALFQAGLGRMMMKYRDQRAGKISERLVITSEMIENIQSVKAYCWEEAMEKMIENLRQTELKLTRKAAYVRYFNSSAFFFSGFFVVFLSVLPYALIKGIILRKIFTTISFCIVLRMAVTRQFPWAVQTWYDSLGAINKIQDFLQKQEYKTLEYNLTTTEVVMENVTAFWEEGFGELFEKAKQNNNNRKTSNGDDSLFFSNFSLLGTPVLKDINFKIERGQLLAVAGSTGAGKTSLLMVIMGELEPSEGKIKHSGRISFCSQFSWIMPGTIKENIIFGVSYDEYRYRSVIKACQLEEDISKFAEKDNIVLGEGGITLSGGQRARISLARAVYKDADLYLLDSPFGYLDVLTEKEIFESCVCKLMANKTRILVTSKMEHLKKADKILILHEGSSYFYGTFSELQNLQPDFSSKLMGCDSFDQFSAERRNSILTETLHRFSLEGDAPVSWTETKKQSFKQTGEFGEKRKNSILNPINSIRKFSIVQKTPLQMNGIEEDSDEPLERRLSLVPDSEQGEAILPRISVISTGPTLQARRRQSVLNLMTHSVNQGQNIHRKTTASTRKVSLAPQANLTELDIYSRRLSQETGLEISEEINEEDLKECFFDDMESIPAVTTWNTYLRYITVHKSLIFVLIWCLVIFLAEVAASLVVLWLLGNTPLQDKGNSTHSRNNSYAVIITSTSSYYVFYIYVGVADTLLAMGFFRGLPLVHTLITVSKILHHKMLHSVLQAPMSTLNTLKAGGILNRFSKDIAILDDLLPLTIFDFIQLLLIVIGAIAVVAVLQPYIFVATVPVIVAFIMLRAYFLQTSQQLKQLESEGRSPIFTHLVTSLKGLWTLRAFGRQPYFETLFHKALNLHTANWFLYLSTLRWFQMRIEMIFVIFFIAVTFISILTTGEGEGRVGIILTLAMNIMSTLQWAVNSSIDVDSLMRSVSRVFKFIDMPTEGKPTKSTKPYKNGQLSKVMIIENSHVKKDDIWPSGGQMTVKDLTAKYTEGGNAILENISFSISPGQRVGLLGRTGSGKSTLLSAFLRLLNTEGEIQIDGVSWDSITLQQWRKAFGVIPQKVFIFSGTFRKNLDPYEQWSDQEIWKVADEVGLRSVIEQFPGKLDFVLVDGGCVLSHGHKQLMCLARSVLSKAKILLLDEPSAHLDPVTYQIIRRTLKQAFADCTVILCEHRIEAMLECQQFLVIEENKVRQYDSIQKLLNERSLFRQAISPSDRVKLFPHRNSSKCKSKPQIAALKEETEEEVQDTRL

Row | Compound | pEC50 | Max. Activity
1 | CC1(C)C[C@H]2CCCCn3cc(cn3)S(=O)(=O)NC(=O)c3ccc(-n4ccc(OCCC5(C(F)(F)F)CC5)n4)nc3N1C2 (single isomer, unassigned) [Compound 134, 21,21-Dimethyl-4-(3-{2-[1-(trifluoromethyl)cyclopropyl]ethoxy}-1H-pyrazol-1-yl)-10λ^6-thia-1,3,9,13,14-pentaazatetracyclo[17.2.1.111,14.02,7]tricosa-2,4,6,11(23),12-pentaene-8,10,10-trione] | > 6.00 | + (+ is <30%)
2 | CC(C)(C)CCN1CCN(c2ccc3c(n2)N2C[C@@H](CCCNc4cccc(n4)S(=O)(=O)NC3=O)CC2(C)C)C1=O [Compound 128, (14S)-8-[3-(3,3-dimethylbutyl)-2-oxoimidazolidin-1-yl]-12,12-dimethyl-2λ^6-thia-3,9,11,18,23-pentaazatetracyclo[17.3.1.111,14.05,10]tetracosa-1(22),5,7,9,19(23),20-hexaene-2,2,4-trione] | > 6.00 | +++ (+++ is >60%)
3 | CC(C)(C)CCCO[C@H]1CCN(c2ccc3c(n2)N2C[C@@H](CCCNc4cccc(n4)S(=O)(=O)NC3=O)CC2(C)C)C1=O (single isomer, unassigned) [Compound 246] | > 6.00 | ++ (++ is 30-60%)
4 | CC1(C)C[C@H]2CCCCNc3ccc(cn3)S(=O)(=O)NC(=O)c3ccc(-n4ccc(OCC5C6(CC6)C56CC6)n4)nc3N1C2 (single isomer, unassigned) [Compound 121, 8-[3-({dispiro[2.0.2.1]heptan-7-yl}methoxy)-1H-pyrazol-1-yl]-12,12-dimethyl-2λ^6-thia-3,9,11,19,21-pentaazatetracyclo[18.2.2.111,14.05,10]pentacosa-1(23),5,7,9,20(24),21-hexaene-2,2,4-trione] | > 6.00 | +++ (+++ is >60%)
5 | CC1(C)C[C@H]2C[C@@H](F)CNc3cccc(n3)S(=O)(=O)NC(=O)c3ccc(-n4ccc(OCCC5C6(CC6)C56CC6)n4)nc3N1C2 (single isomer, unassigned) [Compound 306, 8-[3-(2-{dispiro[2.0.2.1]heptan-7-yl}ethoxy)-1H-pyrazol-1-yl]-16-fluoro-12,12-dimethyl-2λ^6-thia-3,9,11,18,23-pentaazatetracyclo[17.3.1.111,14.05,10]tetracosa-1(22),5,7,9,19(23),20-hexaene-2,2,4-trione] | > 6.00 | +++ (+++ is >60%)
6 | C[C@@H]1CC[C@H]2CN(c3nc(-n4ccc(OCCC5(C(F)(F)F)CC5)n4)ccc3C(=O)NS(=O)(=O)c3cccc(n3)N1)C(C)(C)C2 (single isomer, unassigned) [Compound 58, 12,12,17-trimethyl-8-(3-{2-[1-(trifluoromethyl)cyclopropyl]ethoxy}-1H-pyrazol-1-yl)-2λ^6-thia-3,9,11,18,23-pentaazatetracyclo[17.3.1.111,14.05,10]tetracosa-1(23),5(10),6,8,19,21-hexaene-2,2,4-trione] | > 6.00 | + (+ is <30%)
7 | CC1(C)C[C@H]2CCCNc3cccc(n3)S(=O)(=O)NC(=O)c3ccc(-n4ccc(OCC5(C(F)(F)F)CC5)n4)nc3N1C2 (single isomer, unassigned) [Compound 21, 12,12-dimethyl-8-(3-{[1-(trifluoromethyl)cyclopropyl]methoxy}-1H-pyrazol-1-yl)-2λ^6-thia-3,9,11,18,23-pentaazatetracyclo[17.3.1.111,14.05,10]tetracosa-1(23),5(10),6,8,19,21-hexaene-2,2,4-trione] | < 5.52 | ++ (++ is 30-60%)
8 | CN1CCC[C@H]2CCC(C)(C)N2c2nc(-n3ccc(OCCC4(C(F)(F)F)CC4)n3)ccc2C(=O)NS(=O)(=O)c2cccc1n2 [Compound 10, (15S)-12,12,19-trimethyl-8-(3-{2-[1-(trifluoromethyl)cyclopropyl]ethoxy}-1H-pyrazol-1-yl)-2λ^6-thia-3,9,11,19,24-pentaazatetracyclo[18.3.1.05,10.011,15]tetracosa-1(24),5(10),6,8,20,22-hexaene-2,2,4-trione] | < 5.52 | + (+ is <30%)
9 | CC1(C)CCC(CN2CCN(c3ccc4c(n3)N3C[C@@H](CCCNc5cccc(n5)S(=O)(=O)NC4=O)CC3(C)C)C2=O)CC1 [Compound 217, (14S)-8-{3-[(4,4-Dimethylcyclohexyl)methyl]-2-oxoimidazolidin-1-yl}-12,12-dimethyl-2λ^6-thia-3,9,11,18,23-pentaazatetracyclo[17.3.1.111,14.05,10]tetracosa-1(22),5,7,9,19(23),20-hexaene-2,2,4-trione] | > 6.00 | ++ (++ is 30-60%)
10 | CC1(C)C[C@H]2CCCCNc3cccc(n3)S(=O)(=O)NC(=O)c3ccc(-n4cc(OCCC5(C(F)(F)F)CC5)cn4)nc3N1C2 (single isomer, unassigned) [Compound 83, 12,12-dimethyl-8-(4-{2-[1-(trifluoromethyl)cyclopropyl]ethoxy}-1H-pyrazol-1-yl)-2λ^6-thia-3,9,11,19,24-pentaazatetracyclo[18.3.1.111,14.05,10]pentacosa-1(23),5,7,9,20(24),21-hexaene-2,2,4-trione] | > 6.00 | ++ (++ is 30-60%)
11 | CC1(C)CC[C@H]2CCCCNc3cccc(n3)S(=O)(=O)NC(=O)c3ccc(-n4ccc(OCCC5(C(F)(F)F)CC5)n4)nc3N21 (single isomer, unassigned) [Compound 47, 12,12-dimethyl-8-(3-{2-[1-(trifluoromethyl)cyclopropyl]ethoxy}-1H-pyrazol-1-yl)-2λ^6-thia-3,9,11,20,25-pentaazatetracyclo[19.3.1.05,10.011,15]pentacosa-1(24),5,7,9,21(25),22-hexaene-2,2,4-trione] | > 6.00 | +++ (+++ is >60%)
12 | CC1(C)CC[C@H]2CCCNc3cccc(n3)S(=O)(=O)NC(=O)c3ccc(-n4ccc(OCC5C6(CC6)C56CC6)n4)nc3N21 (single isomer, unassigned) [Compound 124, 8-[3-({dispiro[2.0.2.1]heptan-7-yl}methoxy)-1H-pyrazol-1-yl]-12,12-dimethyl-2λ^6-thia-3,9,11,19,24-pentaazatetracyclo[18.3.1.05,10.011,15]tetracosa-1(23),5(10),6,8,20(24),21-hexaene-2,2,4-trione] | > 6.00 | +++ (+++ is >60%)
13 | CC1(C)C[C@@H]2CCCNc3cccc(n3)S(=O)(=O)NC(=O)c3ccc(-n4ccc(OCC(=O)C5C6(CC6)C56CC6)n4)nc3N1C2 [Compound 258, (14S)-8-[3-(2-{Dispiro[2.0.2.1]heptan-7-yl}-2-oxoethoxy)-1H-pyrazol-1-yl]-12,12-dimethyl-2λ^6-thia-3,9,11,18,23-pentaazatetracyclo[17.3.1.111,14.05,10]tetracosa-1(22),5,7,9,19(23),20-hexaene-2,2,4-trione] | > 6.00 | +++ (+++ is >60%)
14 | CC(C)(C)CCC1CCN(c2ccc3c(n2)N2C[C@H](CCCn4ccc(n4)S(=O)(=O)NC3=O)CC2(C)C)C1=O (stereo in doubt) [Compound 184, 4-[3-(3,3-dimethylbutyl)-2-oxopyrrolidin-1-yl]-20,20-dimethyl-10λ^6-thia-1,3,9,14,22-pentaazatetracyclo[16.2.1.111,14.02,7]docosa-2,4,6,11(22),12-pentaene-8,10,10-trione] | 5.52 to 6.00 | + (+ is <30%)
15 | Cc1cc2nn1CCC[C@H]1CN(c3nc(-n4ccc(OCCC5(C(F)(F)F)CC5)n4)ccc3C(=O)NS2(=O)=O)C(C)(C)C1 (single isomer, unassigned) [Compound 151, 13,20,20-trimethyl-4-(3-{2-[1-(trifluoromethyl)cyclopropyl]ethoxy}-1H-pyrazol-1-yl)-10λ^6-thia-1,3,9,14,22-pentaazatetracyclo[16.2.1.111,14.02,7]docosa-2,4,6,11(22),12-pentaene-8,10,10-trione] | > 6.00 | +++ (+++ is >60%)
16 | CC1(C)C[C@H]2CCCn3ccc(n3)S(=O)(=O)NC(=O)c3ccc(-n4ccc(OCCC5C(C)(C)C5(C)C)n4)nc3N1C2 (single isomer, unassigned) [Compound 206, 20,20-dimethyl-4-{3-[2-(2,2,3,3-tetramethylcyclopropyl)ethoxy]-1H-pyrazol-1-yl}-10λ^6-thia-1,3,9,14,22-pentaazatetracyclo[16.2.1.111,14.02,7]docosa-2(7),3,5,11(22),12-pentaene-8,10,10-trione] | > 6.00 | + (+ is <30%)
17 | CC1(C)C[C@H]2CCCCc3ccc(cc3)S(=O)(=O)NC(=O)c3ccc(-n4ccc(OCCC5(C(F)(F)F)CC5)n4)nc3N1C2 (single isomer, unassigned) [Compound 54, 12,12-Dimethyl-8-(3-{2-[1-(trifluoromethyl)cyclopropyl]ethoxy}-1H-pyrazol-1-yl)-2λ^6-thia-3,9,11-triazatetracyclo[17.2.2.111,14.05,10]tetracosa-1(21),5,7,9,19,22-hexaene-2,2,4-trione] | 5.52 to 6.00 | ++ (++ is 30-60%)
18 | CC1(C)C[C@@H]2CN1c1nc(-n3ccc(OCCCC4(C(F)(F)F)CC4)n3)ccc1C(=O)NS(=O)(=O)c1cccc(n1)NCCO2 (single isomer, unassigned) [Compound 159, 12,12-dimethyl-8-(3-{3-[1-(trifluoromethyl)cyclopropyl]propoxy}-1H-pyrazol-1-yl)-15-oxa-2λ^6-thia-3,9,11,18,23-pentaazatetracyclo[17.3.1.111,14.05,10]tetracosa-1(23),5,7,9,19,21-hexaene-2,2,4-trione] | < 5.52 | + (+ is <30%)
